Test results published in patent US7109364B2, “Group of anti-cancer compounds with specific structure and their production method” (priority 2000, dated 2006).
Converted amounts (≈) assume the structure as drawn. Like-named read-outs stand apart in the source and are kept apart here.

Experiments:
[1] = tested on: K562 human leukemia cell line; assay: In vitro anti-cancer efficacy, K562, trypan blue dye exclusion, 48 hours; assay type: cell-based; conditions: for IC50 / IC90: Homo sapiens; for IC50: read-out: K562 IC50; for IC90: read-out: K562 IC90
Method: (§1) The above compounds were dissolved in DMSO at stock concentration of 10 mg/ml and stored at 4° C. Before each experiment they were diluted to desired concentration with serum-free RPMI 1640 medium
1. K562 human leukemia cell line: K562 cells were maintained in RPMI 1640 medium with 5% fetal bovine serum at 37° C. under 5% CO2 atmosphere. 4×10^4 cells/well were plated on 96-well plate. After treatment with the test compounds and solvent control (DMSO) for 48 hours, numbers of live cells were counted by trypan blue dye exclusion.
(§2) Reagents and Methods: same as in Experiment 1.

[2] = tested on: B16 mouse melanoma cell line; assay: In vitro anti-cancer efficacy, B16, SRB method, 48 hours; assay type: cell-based; conditions: for IC50 / IC90: Mus musculus; for IC50: read-out: B16 IC50; for IC90: read-out: B16 IC90
Method: as §1
2. B16 mouse melanoma cell line: B16 cells were maintained under the same condition as above. 2×10^4 cells/well were plated on 48-well plate and left for 12 hours for attachment. Cells were then treated with the test compounds and solvent control for 48 hours. Numbers of live cells were determined by SRB method. Briefly, cells were fixed with 50 μl/well 15% TCA for 1 hour, and then washed three times with double-distilled water. After drying 50 μl/well 1% SRB dye was added and reacted for 10 minutes. Plate was washed with 1% acetic acid. 0.2 ml Tris buffer (pH 9.6) was added and OD510 was recorded.
as §2

[3] = tested on: Mouse cervical carcinoma U14; assay: In vivo anti-cancer efficacy, solid tumor model
Description: Mouse cervical carcinoma U14 model was used to compare in vivo anti-cancer efficacy of 15-methyl-2-hexadecenoic acid, 13-methyl-tetradecanoic acid and the chemotherapy drug cytoxan (CTX).
40 male ICR strain mice, weighing 19–22 g, were randomly divided into 4 groups of 10 each. U14 cervical carcinoma mass (about 2 mm^3 each) was transplanted subcutaneously into the right armpits of all animals following standard procedure. The test group was given 15-methyl-2-hexadecenoic acid and 13-methyl-tetradecanoic acid at 0.4 g/kg, respectively, intragastrically (i.g.) daily for 11 days. The positive control group was given a single dose of CTX i.g. (25 mg/kg) on day 1. Negative control group was given normal saline (N.S.) at 0.2 ml/10 g daily for 11 days. On the 12th day, all mice were sacrificed and the tumors were isolated and weighed. The tumor inhibition rate (TIR) was calculated and subject to t test.

[4] = K562, Table 2, unit inferred, methods same as in Experiment 1
[5] = Table 2, unit inferred, methods same as in Experiment 1

Compound	IC50 ([1]; K562, Table 1, 48 hours) [µg/mL]	IC90 ([1]; K562, Table 1, 48 hours) [µg/mL]	IC50 ([2]; Table 1, 48 hours) [µg/mL]	IC90 ([2]; Table 1, 48 hours) [µg/mL]	other results
CC(C)CC=CCCCCC(=O)O [9-methyl-6-decenoic acid]					IC50 [1, 4]: 50.8 µg/mL (≈ 276 µM); IC90 [1, 4]: 83 µg/mL (≈ 450 µM); IC50 [2, 5]: 90 µg/mL (≈ 488 µM); IC90 [2, 5]: 269 µg/mL (≈ 1460 µM)
CC(C)CCCCCCCC(=O)O [9-methyl-decanoic acid, reference compound]					IC50 [1, 4]: 55.5 µg/mL (≈ 298 µM); IC90 [1, 4]: 87 µg/mL (≈ 467 µM); IC50 [2, 5]: 97 µg/mL (≈ 521 µM); IC90 [2, 5]: 280 µg/mL (≈ 1500 µM)
CC(C)CCCCCCCCCCCC(=O)O [13-methyl-tetradecanoic acid]					TIR (tumor inhibition rate) ([3]; day 12, test compounds 0.4 g/kg i.g. daily 11 days, CTX 25 mg/kg i.g. single dose): 64.6%; Tumor W. ([3]; day 12, test compounds 0.4 g/kg i.g. daily 11 days, CTX 25 mg/kg i.g. single dose, ± SD): 0.93 ± 0.32 g; Body W. D1 ([3]; mouse, in vivo): 20.7 ± 0.7 g
CC(C)CCCCCCCC=CCCCCC(=O)O [15-methyl-6-hexadecenoic acid]					IC50 [1, 4]: 23.8 µg/mL (≈ 88.7 µM); IC90 [1, 4]: 30.5 µg/mL (≈ 114 µM); IC50 [2, 5]: 21.3 µg/mL (≈ 79.3 µM); IC90 [2, 5]: 35.2 µg/mL (≈ 131 µM)
CC(C)CCCCCCCCCCCCCC(=O)O [15-methyl-hexadecanoic acid, reference compound]					IC50 [1, 4]: 25.9 µg/mL (≈ 95.8 µM); IC90 [1, 4]: 35.6 µg/mL (≈ 132 µM); IC50 [2, 5]: 20.7 µg/mL (≈ 76.5 µM); IC90 [2, 5]: 38.2 µg/mL (≈ 141 µM)
CC(C)CCCCCCCCCCCC(=O)Nc1ccc(S(=O)(=O)O)cc1 [Compound 2, N-(4-Sulfo-phenyl)-13-methyl tetradecamide]					K562 IC50 ([1]; Table 1, 48 hours): 27.1 µg/mL; K562 IC90 ([1]; Table 1, 48 hours): 37.8 µg/mL; B16 IC50 ([2]; Table 1, 48 hours): 25.4 µg/mL; B16 IC90 ([2]; Table 1, 48 hours): 35.7 µg/mL
CC(C)CCCCCCCCCCCC(=O)NCC(=O)O [Compound 3, N-(13-methyl-tetradecanoyl)glycine]	14.7 (≈ 49.1 µM)	21.9 (≈ 73.1 µM)	12.8 (≈ 42.7 µM)	20.1 (≈ 67.1 µM)	
CC(C)CCCCCCCCCCCC(=O)N[C@@H](C)C(=O)O [Compound 4, N-(13-methyl-tetradecanoyl)-L-alanine]	11.2 (≈ 35.7 µM)	20.7 (≈ 66 µM)	14.8 (≈ 47.2 µM)	18.4 (≈ 58.7 µM)	
CC(C)CCCCCCCCCCCC(=O)N[C@@H](Cc1ccccc1)C(=O)O [Compound 5, N-(13-methyl-tetradecanoyl)-L-phenylalanine]	10.3 (≈ 26.4 µM)	19.6 (≈ 50.3 µM)	13.4 (≈ 34.4 µM)	20.5 (≈ 52.6 µM)	
CC(C)CCCCCCCCCCCC(=O)N[C@H](C(=O)O)C(C)C [Compound 6, N-(13-methyl-tetradecanoyl)-L-valine]	18.1 (≈ 53 µM)	22.5 (≈ 65.9 µM)	11.7 (≈ 34.3 µM)	19.2 (≈ 56.2 µM)	
CC(C)CCCCCCCCCCCC(=O)N[C@@H](CC(C)C)C(=O)O [Compound 7, N-(13-methyl-tetradecanoyl)-L-leucine]	11.8 (≈ 33.2 µM)	30.6 (≈ 86.1 µM)	10.4 (≈ 29.2 µM)	20.1 (≈ 56.5 µM)	
CC[C@H](C)[C@H](NC(=O)CCCCCCCCCCCC(C)C)C(=O)O [Compound 8, N-(13-methyl-tetradecanoyl)-L-isoleucine]	19.3 (≈ 54.3 µM)	28.6 (≈ 80.4 µM)	11.1 (≈ 31.2 µM)	18.9 (≈ 53.2 µM)	
CC(C)CCCCCCCCCCCC(=O)N[C@@H](CCC(=O)O)C(=O)O [Compound 9, N-(13-methyl-tetradecanoyl)-L-glutamic acid]	28.2 (≈ 75.9 µM)	37.9 (≈ 102 µM)	26.3 (≈ 70.8 µM)	35.1 (≈ 94.5 µM)	
CC(C)CCCCCCCCCCCC(=O)N1CCC[C@H]1C(=O)O [Compound 10, N-(13-methyl-tetradecanoyl)-L-proline]					IC50 ([1]; K562, 48 h): 17.2 µg/mL (≈ 50.7 µM); IC90 ([1]; K562, 48 h): 25.3 µg/mL (≈ 74.5 µM); IC50 ([2]; 48 h): 15.2 µg/mL (≈ 44.8 µM); IC90 ([2]; 48 h): 17.3 µg/mL (≈ 51 µM)
CC(C)CCCCCCCCCCCC(=O)N[C@@H](C=O)[C@@H](O)[C@H](O)[C@H](O)CO [Compound 11, N-(13-methyl-tetradecanoyl)-2-amino-2-deoxyglucose]	24.3 (≈ 60.2 µM)	38.1 (≈ 94.4 µM)	24.5 (≈ 60.7 µM)	34.6 (≈ 85.7 µM)	
CC(C)CCCCCCCCCCCC(=O)Nc1ccc(C(=O)O)c(O)c1 [Compound 12, N-(3-Hydroxy-4-carboxylphenyl)-13-methyl-tetradecanamide]	18.7 (≈ 49.5 µM)	24.7 (≈ 65.4 µM)	16.5 (≈ 43.7 µM)	22.9 (≈ 60.7 µM)	
